The text below walks through data of patent US9320276B2, “N-hetarylmethyl pyrazolylcarboxamides” (BAYER INTELLECTUAL PROPERTY GMBH, priority 2010, dated 2016).

Molecules are shown by their SMILES.

As a reminder, the logP is a log measure of how a compound divides between an organic and an aqueous phase. The low end stands for lower lipophilicity, the high end for higher lipophilicity.

In one series the test system is Sphaerotheca fuliginea. The series can be described thus: in vivo preventive test on Sphaerotheca fuliginea (cucumber). To be noted: 500 ppm of active ingredient, evaluated 7 days after inoculation. On the procedure:
Solvent: 49 parts by weight of N,N-dimethylformamide Emulsifier: 1 part by weight of Alkylarylpolyglycolether To produce a suitable preparation of active compound, 1 part by weight of active compound is mixed with the stated amounts of solvent and emulsifier, and the concentrate is diluted with water to the desired concentration. To test for preventive activity, young plants are sprayed with the preparation of active compound at the stated rate of application. One day after this treatment, the plants are inoculated with an aqueous spore suspension of Sphaerotheca fuliginea. Then the plants are placed in a greenhouse at approximately 23° C. and a relative atmospheric humidity of approximately 70%. The test is evaluated 7 days after the inoculation. 0% means an efficacy which corresponds to that of the untreated control, while an efficacy of 100% means that no disease is observed.

For another series, the system named is Pyrenophora teres. The series can be described thus: in vivo preventive test on Pyrenophora teres (barley). To be noted: 500 ppm of active ingredient, evaluated 7-9 days after inoculation. An outline of the steps: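 Young barley plants sprayed with compound in DMF/alkylaryl polyglycol ether emulsion; inoculated with P. teres spores one day later. 48 h at 22 °C, 100% humidity, then greenhouse ~20 °C, ~80% humidity; efficacy scored 7-9 days post-inoculation, 0% = untreated, 100% = no disease.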

In a further series the test system is Alternaria solani. The series can be described thus: in vivo preventive test on Alternaria solani (tomato). As to conditions: 500 ppm of active ingredient, evaluated 7 days after inoculation. The procedure, abridged: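 Young tomato plants were sprayed preventively with compound in DMF/alkylarylpolyglycolether diluted in water, then inoculated one day later with A. solani spores. Incubation was 1 day at about 22 °C and 100% RH, then about 20 °C and 96% RH. Efficacy was scored 7 days after inoculation (0% = untreated control, 100% = no disease).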

Series [1] is described as follows: logP by HPLC on reversed-phase column (EEC Directive 79/831 Annex V.A8). It counts as physicochemical. To be noted: HPLC on reversed-phase column (C 18), 40° C., 0.1% aqueous formic acid and acetonitrile, linear gradient 10% to 90% acetonitrile. The procedure, abridged:
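Reversed-phase C18 HPLC at 40° C with 0.1% aqueous formic acid/acetonitrile, linear gradient 10% to 90% acetonitrile. LogP obtained from retention time by linear interpolation between successive unbranched alkan-2-ones (3 to 16 carbons) of known logP. Lambda-max taken from UV spectra at 200-400 nm at chromatographic peak maxima.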

In another series the test system is Venturia inaequalis. Kind of series: in vivo preventive test on Venturia inaequalis (apple scab). To be noted: 100 ppm of active ingredient, evaluated 10 days after inoculation. On the procedure:
Solvent: 24.5 parts by weight of acetone • 24.5 parts by weight of N,N-dimethylacetamide Emulsifier: 1 part by weight of alkylaryl polyglycol ether To produce a suitable preparation of active compound, 1 part by weight of active compound is mixed with the stated amounts of solvent and emulsifier, and the concentrate is diluted with water to the desired concentration. To test for preventive activity, young plants are sprayed with the preparation of active compound at the stated rate of application. After the spray coating has dried on, the plants are inoculated with an aqueous conidia suspension of the causal agent of apple scab (Venturia inaequalis) and then remain for 1 day in an incubation cabinet at approximately 20° C. and a relative atmospheric humidity of 100%. The plants are then placed in a greenhouse at approximately 21° C. and a relative atmospheric humidity of approximately 90%. The test is evaluated 10 days after the inoculation. 0% means an efficacy which corresponds to that of the untreated control, while an efficacy of 100% means that no disease is observed.

A further series relates to Leptosphaeria nodorum. Kind of series: in vivo preventive test on Leptosphaeria nodorum (wheat). As to conditions: 500 ppm of active ingredient, evaluated 7-9 days after inoculation. The method, then: Solvent: 49 parts by weight of N,N-dimethylacetamide Emulsifier: 1 part by weight of alkylaryl polyglycol ether To produce a suitable preparation of active compound, 1 part by weight of active compound is mixed with the stated amounts of solvent and emulsifier, and the concentrate is diluted with water to the desired concentration. To test for preventive activity, young plants are sprayed with a preparation of active compound at the stated rate of application. One day after this treatment, the plants are inoculated with an aqueous spore suspension of Leptosphaeria nodorum. The plants remain for 48 hours in an incubation cabinet at 22° C. and a relative atmospheric humidity of 100%. Then the plants are placed in a greenhouse at a temperature of approximately 22° C. and a relative atmospheric humidity of approximately 90%. The test is evaluated 7-9 days after the inoculation. 0% means an efficacy which corresponds to that of the untreated control, while an efficacy of 100% means that no disease is observed.

In series [2] the test system is Blumeria graminis fsp. hordei. The series can be described thus: in vivo preventive test on Blumeria graminis (barley). As to conditions: 500 ppm of active ingredient, evaluated 7 days after inoculation. The method, then: Solvent: 49 parts by weight of N,N-dimethylacetamide Emulsifier: 1 part by weight of alkylaryl polyglycol ether To produce a suitable preparation of active compound, 1 part by weight of active compound or active compound combination is mixed with the stated amounts of solvent and emulsifier, and the concentrate is diluted with water to the desired concentration. To test for preventive activity, young plants are sprayed with the preparation of active compound or active compound combination at the stated rate of application. After the spray coating has been dried, the plants are dusted with spores of Blumeria graminis fsp. hordei. The plants are placed in the greenhouse at a temperature of approximately 18° C. and a relative atmospheric humidity of approximately 80% to promote the development of mildew pustules. The test is evaluated 7 days after the inoculation. 0% means an efficacy which corresponds to that of the untreated control, while an efficacy of 100% means that no disease is observed.

In series [3] the test system is Fusarium nivale (var. majus). Kind of series: in vivo curative test on Fusarium nivale (wheat). To be noted: 500 ppm of active ingredient, evaluated 5 days after inoculation. The method, then:
Solvent: 49 parts by weight of N,N-dimethylacetamide Emulsifier: 1 part by weight of alkylaryl polyglycol ether To produce a suitable preparation of active compound, 1 part by weight of active compound or active compound combination is mixed with the stated amounts of solvent and emulsifier, and the concentrate is diluted with water to the desired concentration. To test for curative activity, young plants are slightly injured by using a sandblast and afterwards they are sprayed with a conidia suspension of Fusarium nivale (var. majus) and placed for 24 hours in a greenhouse under a translucent incubation cabinet at a temperature of approximately 10° C. and a relative atmospheric humidity of approximately 100% and are subsequently sprayed with the preparation of active compound at the stated rate of application. After the spray coating has been dried, the plants remain in the greenhouse under translucent incubation cloches at a temperature of approximately 10° C. and a relative atmospheric humidity of approximately 100%. The test is evaluated 5 days after the inoculation. 0% means an efficacy which corresponds to that of the untreated control, while an efficacy of 100% means that no disease is observed.

The next series deals with Septoria tritici. Kind of series: in vivo preventive test on Septoria tritici (wheat). To be noted: 500 ppm of active ingredient, evaluated 21 days after inoculation. On the procedure: (§1) Solvent: 49 parts by weight of N,N-dimethylacetamide Emulsifier: 1 part by weight of alkylaryl polyglycol ether To produce a suitable preparation of active compound, 1 part by weight of active compound or active compound combination is mixed with the stated amounts of solvent and emulsifier, and the concentrate is diluted with water to the desired concentration. To test for preventive activity, young plants are sprayed with the preparation of active compound or active compound combination at the stated rate of application. After the spray coating has been dried, the plants are sprayed with a spore suspension of Septoria tritici. The plants remain for 48 hours in an incubation cabinet at approximately 20° C. and a relative atmospheric humidity of approximately 100% and afterwards for 60 hours at approximately 15° C. in a translucent incubation cabinet at a relative atmospheric humidity of approximately 100%. The plants are placed in the greenhouse at a temperature of approximately 15° C. and a relative atmospheric humidity of approximately 80%. The test is evaluated 21 days after the inoculation. 0% means an efficacy which corresponds to that of the untreated control, while an efficacy of 100% means that no disease is observed.

A further series relates to Puccinia triticina. The series can be described thus: in vivo protective test on Puccinia triticina (wheat). To be noted: 500 ppm of active ingredient, preventive, evaluated 8 days after inoculation. On the procedure: as §1, with “Puccinia triticina.” for “Septoria tritici.”, “approximately” for “approximately 100% and afterwards for 60 hours at approximately 15° C. in a translucent incubation cabinet at a relative atmospheric humidity of approximately”, “20°” for “15°”, “8” for “21”

In the case of `Cc1nn(-c2ccccc2)nc1CN(C(=S)c1c(C(F)F)nn(C)c1F)C1CC1` [Example 132], the Efficacy was 100% in the series with Sphaerotheca fuliginea, 100% in the series with Pyrenophora teres, 90% with Alternaria solani and 98% in the series on Venturia inaequalis. In series [1], the logP turned out to be 4.04.

For the molecule `CC(c1csc2ccccc12)N(C(=O)c1c(C(F)F)nn(C)c1F)C1CC1` (racemic) [Example 85], the Efficacy in the series on Leptosphaeria nodorum is given as 100%; in the series with Sphaerotheca fuliginea, 94%; in [2], 100%; in the series with Pyrenophora teres, 100%; in the series with Alternaria solani, 80%; in series [3] it was 100%. For the same molecule, the Efficacy in the series with Venturia inaequalis is recorded as 100%; in the series with Septoria tritici, 90%. The logP in series [1] is recorded as 3.60.

As to `Cn1nc(C(F)F)c(C(=O)N(Cc2csc3ccccc23)C2CC2)c1F` [Example 90], the Efficacy with Leptosphaeria nodorum turned out to be 100%; in series [2], 100%; with Puccinia triticina, 88%; with Pyrenophora teres, 100%; in the series with Alternaria solani, 95%; in series [3] it was 100%. The Efficacy in the series on Septoria tritici turned out to be 100%. The molecule also displayed a logP in series [1] of 3.27.
